Measured values taken from US20240166687A1, “REGULATORY T CELL-INDUCING PEPTIDE AND COMPOSITION INCLUDING SAME FOR PREVENTING OR TREATING AUTOIMMUNE DISEASE” (IUCF-HYU (INDUSTRY-UNIVERSITY COOPERATION FOUNDATION …, priority 2021, published 2024).
“Also recorded” adds a separate entry of the source.

What was measured:
[1] = system: multiple sclerosis animal model; test: Analysis of efficiency in multiple sclerosis (MS) animal model (MOG35-55/CFA + PTX); type: in vivo, C57BL/6 mice; details: for clinical symptoms (clinical score): 100 μg (5 mg/kg) intraperitoneally once a day from day 7 after PTX; for clinical symptoms (clinical score) / number of infiltrated lymphocytes in the spinal cord / number of Treg cells (spinal cord): comparator as named in the value; for number of infiltrated lymphocytes in the spinal cord / number of Treg cells (spinal cord): 100 μg intraperitoneally once a day from day 7
Experimental: 8-week-old female C57BL/6 mice were purchased from Orient Bio (Daejeon, Korea). All animal experiments were conducted in compliance with the animal experiment operation regulations of the Institutional Animal Care and Use Committee of Hanyang University. The mice were acclimatized for 2 weeks before the experiment. The mice were raised in a breeding room maintained at temperature 22±2° C. and 40-60% humidity with free access to feed. The light and dark cycles were adjusted at 12-hour intervals. Multiple sclerosis was induced by subcutaneous immunization using a MOG35-55/CFA emulsion PTX kit (Hooke Labs, Lawrence, MA, USA) according to the manufacturer's protocol. The mice were anesthetized with isoflurane and MOG35-55/CFA was subcutaneously injected bilaterally, followed by intraperitoneal injection of PTX (pertussis toxin) 2 hours and 24 hours later. The mice were randomly assigned to different groups after MOG immunization. Because paralysis due to immune response begins on day 7 after the injection of PTX, 100 μg (5 mg/kg) of the samples according to the present disclosure were intraperitoneally injected to the groups once a day from day 7. Each group was monitored every day after inducing multiple sclerosis and clinical symptoms were recorded. The clinical symptoms were evaluated based on the scoring system described in Table 2. The higher clinical scores indicate severer symptoms. The mice were euthanized at the end of the experiments and lymphocytes were isolated from the spinal cords. The isolated spinal cords were treated at 37° C. with 1 mg/mL of DNase 1 (10104159001; Sigma-Aldrich) and 1 mg/mL of collagenase D (11088866001; Sigma-Aldrich) and incubated at 80 rpm on a shaker for 40 minutes. After the enzyme treatment, 500 mM EDTA was added and lymphocytes were isolated by Percoll (GE Healthcare, Little Chalfont, UK) density-gradient centrifugation. The isolated infiltrated lymphocytes were restimulated with a cell stimulation cocktail (plus protein transport inhibitors) (ThermoFisher) at 37° C. for 4 hours and stained with anti-mouse CD4. The cells were fixed, permeabilized using a Foxp3/transcription factor staining buffer set (eBioscience) and stained with anti-mouse IFN-γ, anti-mouse IL-17 or anti-mouse Foxp3. The cells were analyzed using a FACS Canto flow cytometer and the FlowJo software version 10.7.1. For histological analysis, paraffin blocks of the spinal cord tissues were deparaffinized and treated with luxol fast blue. For combination staining, hematoxylin and eosin were used (Dako). The cells infiltrated in the white matter region of the spinal cord tissues were counted using the Image J software version 2.0.0. The increased number of Th1 and Th17 immune cells in the spinal cord means more severe multiple sclerosis, and the increased number of Treg cells means that the function of preventing or treating autoimmune disease such as multiple sclerosis is improved as the tolerance to self-antigens is maintained and the excessive response by the immune system is prevented.

[2] = system: Th17 cells differentiated from splenocytes isolated from mouse; test: Analysis of effect under Th17 differentiation conditions (flow cytometry of IL-17A and Foxp3); type: cell-based; details: sample 2 μM; for effect of suppressing immune response (decrease of IL-17 and increase of Foxp3): flow cytometry 4 days later, comparator as named in the value (Th17/PBS control, K1, AP-K2); for effect of suppressing immune response compared to the dNP2-ctCTLA-4 group / order of the reduction of IL-17 and the increase of Foxp3 among AP-K2 variants: 4 days; for effect of suppressing immune response compared to the dNP2-ctCTLA-4 group: versus dNP2-ctCTLA-4 positive control
From the text: Th17 cells are a subset of CD4 T cells. The Th17 cells are known to secrete a cytokine known as IL-17 and cause inflammation. This is the major cause of autoimmune disease. And, Treg cells (regulatory T cells) are known to suppress and regulate inflammation by expressing the transcription factor called Foxp3. Accordingly, since it is thought that the effect of preventing and treating autoimmune disease may be achieved by regulating inflammation by inhibiting Th17 cells (IL-17) and increasing Treg (Foxp3) cells, the effect of the peptides of the present disclosure was investigated.
Undifferentiated CD4 T cells (naive CD4 T cells) were isolated from splenocytes of 6- to 8-week-old C57BL/6 mice using a mouse undifferentiated CD4+ T cell (naive CD4 T cell) isolation kit (Miltenyi Biotec, Auburn, CA, USA) according to the manufacturer's protocols. For RNAseq, the undifferentiated CD4 T cells (naive CD4 T cells) from the Foxp3-GFP mice were purified, differentiated into Th17 cells and sorted into Foxp3^+ and Foxp3^− populations using a cell sorter (FACS Aria cell sorter BD Biosciences, Franklin Lakes, NJ, USA). The purified undifferentiated CD4 T cells (naive CD4 T cells) were activated with plate-bound anti-CD3 (2 or 5 μg/mL, 553057; BD Pharmingen, La Jolla, CA) and anti-CD28 (2 or 5 μg/mL, 553294; BD Pharmingen, La Jolla, CA) antibodies and differentiated by treating with the following cytokine cocktails in a 96-well plate for 3 or 4 days: Th0; recombinant human TGF-β(R&D Systems) 0.25 ng/mL. Th1; anti-IL-4 (11B11; 16-7041-85; eBioscience) 5 μg/mL, IL-2 (212-12; Peprotech, Rocky Hill, NJ) 50 U/mL, recombinant murine IL-12 (212-12; Peprotech) 2 ng/mL, recombinant human TGF-β (R&D Systems) for Th1 0.25 ng/mL. Th17; anti-IFN-γ (XMG1.2; 16-7311-85; eBioscience) 5 μg/mL, anti-IL-4 (11B11; 16-7041-85; eBioscience) 5 μg/mL, recombinant murine TGF-β (7666-MB, R&D Systems, Minneapolis, MN) 2 ng/mL, IL-6 (216-16; Peprotech) 30 ng/mL, IL-23 (1887-ML-101; R&D Systems) 20 ng/mL, IL-1β (401-ML-010; R&D Systems) 20 ng/mL, and IL-2 (Peprotech) 50 U/mL. Treg; IL-2 (Peprotech) 50 U/mL and TGF-β (R&D Systems) 0.5 ng/mL.
The cells were cotreated with the cytokine cocktails and the samples (2 μM). 4 days later, they were analyzed by flow cytometry using IL-17 and Foxp3 fluorescent antibodies. In some experiments, 5 μM PKC-η pseudosubstrate inhibitor (sc-3096; Santa Cruz) or 5 μM ERK inhibitor (UO126, 662005; Sigma) were also added.
For flow cytometric analysis of living cells only, dead cells were excluded using the Zombie Aqua™ fixable viability kit (Biolegend) before staining with antibodies at room temperature for 10 minutes. After washing, surface proteins of the differentiated Th1, Th17 and Treg cells were stained with monoclonal antibodies at 4° C. for 15 minutes. To determine intracellular cytokine levels, the cells were restimulated with a cell stimulation cocktail (plus protein transport inhibitors) (ThermoFisher) at 37° C. for 4 hours and then stained with surface marker antibodies. The cells were then fixed, permeabilized using a Foxp3/transcription factor staining buffer set (eBioscience) and stained with anti-mouse IFN-γ, anti-mouse IL-17 and anti-mouse Foxp3. The cells were analyzed using a FACS Canto II flow cytometer and the FlowJo software version 10.7.

| Molecule | number of infiltrated lymphocytes in the spinal cord [1] | effect of suppressing immune response (decrease of IL-17 and increase of Foxp3) [2] | further results |
| --- | --- | --- | --- |
| KIKKVKKKGRKGSKIKKVKKKGRKGGKMLKKRSPLTTGVYVKM (dNP2-KSY) [deleted variant of dNP2-ctCTLA-4] | significantly smaller number of infiltrated lymphocytes in the spinal cord as compared to the TAT-ctCTLA-4 group and the PBS group |  | clinical symptoms (clinical score) [1]: significantly superior in terms of clinical symptoms as compared to the TAT-ctCTLA-4 group and the PBS group |
| KIKKVKKKGRKGSKIKKVKKKGRKKMLKKRS (dNP2-K1) [deleted variant of dNP2-ctCTLA-4 with only the K motif] | significantly smaller number of infiltrated lymphocytes in the spinal cord as compared to the TAT-ctCTLA-4 group and the PBS group | exhibited the activity of inhibiting immune response |  |
| KMLKKRS (K1) [Example K1, single K motif of CTLA4 without CPP, fatty acid or linker] |  | did not show significant difference from Th17 (control group) | effect in the multiple sclerosis animal model (overall) ([1]; 100 μg intraperitoneally once a day from day 7 to day 18): does not show significant effect on its own in the multiple sclerosis animal model |
| KMLKKRSGGGGSKMLKKRS (K2(G4S)) [K2 (G4S)] | significantly number of infiltrated lymphocytes in the spinal cord as compared to the K1 group | the activity of inhibiting immune cells is significantly superior | clinical symptoms (clinical score) [1]: significantly remarkable superior result in clinical symptoms than the K1 group; number of Treg cells (spinal cord) [1]: larger number of Treg cells than the K1 group |
| KMLKKRSKMLKKRS (K2) [Example K2, two K motifs of CTLA4 linked, no linker] | significantly smaller number of infiltrated lymphocytes in the spinal cord than the PBS (control group) | significantly better effect of suppressing immune response than the PBS (control group); also recorded: significantly superior effect of suppressing immune response as compared to the PBS group | effect of suppressing immune response compared to the dNP2-ctCTLA-4 group [2]: comparable effect; clinical symptoms (clinical score) [1]: significantly improved result for clinical symptoms as compared to the PBS group |
| KMLKKRSKMLKKRSKMLKKRS (K3) [Example K3] | significantly number of infiltrated lymphocytes in the spinal cord as compared to the K1 group | significantly better effect of suppressing immune response than the PBS (control group); also recorded: significantly superior effect of suppressing immune response as compared to the PBS group | effect of suppressing immune response compared to the dNP2-ctCTLA-4 group [2]: comparable effect; effect of suppressing immune response (decrease of IL-17 and increase of Foxp3) ([2]; listed as Example 4): the activity of inhibiting immune cells is significantly superior; clinical symptoms (clinical score) [1]: significantly remarkable superior result in clinical symptoms than the K1 group; number of Treg cells (spinal cord) [1]: larger number of Treg cells than the K1 group |
| PPTEPECE (P) [motif of CTLA4] |  | did not show significant difference from the dNP2 group or the Th17 group |  |
| RRRWCKRRRGGAMLAAASAMLAAAS (AP-K2 KA) [negative control, lysine and arginine residues of AP-K2 replaced with alanine] |  | decreased slightly |  |
| RRRWCKRRRGGAMLKKRSAMLKKRS (AP-K2 1KA) |  | decreased significantly |  |
| RRRWCKRRRGGKALKKRSKALKKRS (AP-K2 MA) |  |  | order of the reduction of IL-17 and the increase of Foxp3 among AP-K2 variants [2]: in the order of the AP-K2 SA group, the AP-K2 2KA group, the AP-K2 3KA group and the AP-K2 MA group |
| RRRWCKRRRGGKMAKKRSKMAKKRS (AP-K2 LA) |  | slightly decreased function of AP-L2 |  |
| RRRWCKRRRGGKMLAKRSKMLAKRS (AP-K2 2KA) |  |  | order of the reduction of IL-17 and the increase of Foxp3 among AP-K2 variants [2]: in the order of the AP-K2 SA group, the AP-K2 2KA group, the AP-K2 3KA group and the AP-K2 MA group |
| RRRWCKRRRGGKMLKARSKMLKARS (AP-K2 3KA) |  |  | order of the reduction of IL-17 and the increase of Foxp3 among AP-K2 variants [2]: in the order of the AP-K2 SA group, the AP-K2 2KA group, the AP-K2 3KA group and the AP-K2 MA group |
| RRRWCKRRRGGKMLKKASKMLKKAS (AP-K2 RA) |  | decreased significantly |  |
| RRRWCKRRRGGKMLKKRAKMLKKRA (AP-K2 SA) |  |  | order of the reduction of IL-17 and the increase of Foxp3 among AP-K2 variants [2]: in the order of the AP-K2 SA group, the AP-K2 2KA group, the AP-K2 3KA group and the AP-K2 MA group |
| SPLTTGV (S) [motif of CTLA4] |  | did not show significant difference from the dNP2 group or the Th17 group |  |
| YFIPIN (Y2) [Example Y2, motif of CTLA4] |  | did not show significant difference from the dNP2 group or the Th17 group |  |
| YVKM (Y1) [Example Y1, motif of CTLA4] |  | did not show significant difference from the dNP2 group or the Th17 group |  |
| KIKKVKKKGRKGSKIKKVKKKGRKGGKMLKKRSPLTTGVYVKMAATEAECEKQFQPYFIPIN (dNP2-ctCTLA-4 variant) KIKKVKKKGRKGSKIKKVKKKGRKGGKMLKKRSPLTTGVYVKMAATEAECEKQFQPYFIPIN | significantly larger number of infiltrated lymphocytes in the spinal cord as compared to the PBS group |  | clinical symptoms (clinical score) [1]: significantly lower clinical symptoms as compared to the PBS group |
